The text below walks through data of PubChem BioAssay (NCI).

Test systems include HL-60(TB) leukemia; UACC-62 melanoma; BT-549 breast; NCI/ADR-RES ovarian; HCT-116 colon; A549 NSCLC; M14 melanoma; OVCAR-3 ovarian.
What all share (assay): growth of human tumour cells (NCI), 48 h

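Interpolation was linear, between the two tested concentrations surrounding the appropriate level; five concentrations were tested over 48 hours in 96-well plates. GI50 is the concentration that inhibits growth by half. At the TGI there is no net growth.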 Where only a bound is given, the exact number is not on record here.

`CC([C@H]1CC=C2C3CCC4=C[C@@H](N(C)C)CC[C@]4(C)C3CC[C@@]21C)N(C)C` (stereo partly specified): the GI50 is 1.26 µM in the assay with HL-60(TB) leukemia; 1.75 µM with UACC-62 melanoma; 3.54 µM with BT-549 breast; 4.25 µM with NCI/ADR-RES ovarian; 1.07 µM with HCT-116 colon; 3.97 µM with A549 NSCLC. Besides, the GI50 with M14 melanoma was 1.76 µM; in the assay on OVCAR-3 ovarian, 2.45 µM. In addition, the TGI came to 3.66 µM with HL-60(TB) leukemia; 3.59 µM with UACC-62 melanoma; 15.4 µM in the assay on BT-549 breast; 18.2 µM in the assay with NCI/ADR-RES ovarian; 2.76 µM in the assay with HCT-116 colon; 11.1 µM in the assay with A549 NSCLC. Further, the TGI in the assay with M14 melanoma stood at 3.53 µM; in the assay with OVCAR-3 ovarian, 8.74 µM.

For the molecule `COc1cc(OC)c(OC)cc1/C=C/c1cnnc2ccccc12`, the TGI with HL-60(TB) leukemia, with UACC-62 melanoma, with BT-549 breast, in the assay on NCI/ADR-RES ovarian, in the assay with HCT-116 colon and in the assay on A549 NSCLC was over 10 µM throughout. Also, the TGI with M14 melanoma and in the assay on OVCAR-3 ovarian was over 10 µM each time.

Regarding `Cc1ccc(NC(=O)/C(Cc2cc(=O)oc3cc(O)ccc23)=N\NC(C)(C)C)cc1C`, the TGI in the assay on HL-60(TB) leukemia, with UACC-62 melanoma, in the assay on BT-549 breast, in the assay on NCI/ADR-RES ovarian, in the assay on HCT-116 colon and with A549 NSCLC was over 100 µM each time. Besides, the TGI in the assay with M14 melanoma and in the assay with OVCAR-3 ovarian was over 100 µM in each case.

As for `O=C(c1ccccc1)c1c(C(F)(F)F)n([O-])c2cc(C(F)(F)F)ccc2[n+]1=O`, the GI50 with HL-60(TB) leukemia is 0.55 µM; in the assay with UACC-62 melanoma, 1.73 µM; with BT-549 breast it was 0.91 µM; with NCI/ADR-RES ovarian, 2.01 µM; in the assay with HCT-116 colon, 0.951 µM; in the assay with A549 NSCLC it was 1.72 µM. Further, the GI50 is 1.68 µM with M14 melanoma and 1.61 µM in the assay with OVCAR-3 ovarian. Further, the TGI in the assay on HL-60(TB) leukemia stood at 1.58 µM; in the assay with UACC-62 melanoma it was 3.32 µM; in the assay on BT-549 breast it was 2.27 µM; with NCI/ADR-RES ovarian, 5.12 µM; in the assay on HCT-116 colon, 2.36 µM; in the assay with A549 NSCLC, 3.48 µM. Besides, the TGI was found to be 3.17 µM in the assay on M14 melanoma and 3.11 µM in the assay on OVCAR-3 ovarian.

Regarding `CC(=O)/C=C/C1=C(c2csc3ccccc23)c2ccccc2CC1`, the GI50 with HL-60(TB) leukemia is 13.6 µM; in the assay with UACC-62 melanoma, 12.8 µM; with BT-549 breast it was 22.9 µM; in the assay on NCI/ADR-RES ovarian, 21.8 µM; with HCT-116 colon it was 6.16 µM; with A549 NSCLC, 24 µM. Also, the GI50 in the assay on M14 melanoma is 16.5 µM; in the assay with OVCAR-3 ovarian, 13.6 µM. Besides, the TGI in the assay on HL-60(TB) leukemia was 58.3 µM; in the assay with UACC-62 melanoma, 30.5 µM; in the assay on BT-549 breast, 55 µM; in the assay on NCI/ADR-RES ovarian it was 72.7 µM; in the assay on HCT-116 colon, 95 µM; in the assay on A549 NSCLC it was over 100 µM. Besides, the results for the TGI in the assay with M14 melanoma and in the assay on OVCAR-3 ovarian were 37.3 µM and 43.3 µM, respectively.

Consider `CC(C)=CC(=O)N[C@H]1CC[C@]2(C)C3CC[C@]4(C)C(C(C)N(C)C)=CCC4C3CCC2[C@H]1O` (stereo partly specified), for which the GI50 with HL-60(TB) leukemia was 3.34 µM; with UACC-62 melanoma, 1.95 µM; in the assay with BT-549 breast it was 5.99 µM; in the assay with NCI/ADR-RES ovarian it was 10.3 µM; with HCT-116 colon, 1.77 µM; with A549 NSCLC it was 5.92 µM. Moreover, the GI50 was 1.92 µM with M14 melanoma and 4.12 µM in the assay with OVCAR-3 ovarian. Also, the TGI is 9.11 µM with HL-60(TB) leukemia; 3.77 µM in the assay on UACC-62 melanoma; 20.8 µM in the assay with BT-549 breast; 25.5 µM in the assay on NCI/ADR-RES ovarian; 4.21 µM in the assay on HCT-116 colon; 22.9 µM in the assay on A549 NSCLC. Further, the TGI with M14 melanoma amounted to 3.74 µM; in the assay on OVCAR-3 ovarian, 15.7 µM.

As for `COc1ccc(NC(=O)c2sc3nc(C)c(C(=O)/C=C/c4cccc(OC)c4)cc3c2N)cc1`, the GI50 in the assay with HL-60(TB) leukemia is 1.34 µM; in the assay on UACC-62 melanoma, 1.39 µM; in the assay with BT-549 breast, 1.02 µM; with NCI/ADR-RES ovarian, 1.59 µM; in the assay with HCT-116 colon it was 0.773 µM; in the assay with A549 NSCLC it was 1.18 µM. The GI50 in the assay on M14 melanoma was 1.78 µM; in the assay with OVCAR-3 ovarian, 0.939 µM. Further, the TGI in the assay on HL-60(TB) leukemia is 4.24 µM; in the assay on UACC-62 melanoma, 4.11 µM; in the assay with BT-549 breast, 2.67 µM; with NCI/ADR-RES ovarian, over 50 µM; with HCT-116 colon, 1.7 µM; with A549 NSCLC, 9.22 µM. In addition, the TGI in the assay on M14 melanoma is 18.7 µM; with OVCAR-3 ovarian, 2.68 µM.

Take `Cn1c(-c2ccccc2)c(/C=C/C2=[N+](C)c3ccccc3C2(C)C)c2ccccc21`: the GI50 in the assay on HL-60(TB) leukemia was 0.254 µM; in the assay on UACC-62 melanoma, 0.6 µM; with BT-549 breast it was 0.476 µM; with NCI/ADR-RES ovarian, 9.8 µM; with HCT-116 colon, 0.593 µM; in the assay with A549 NSCLC, 1.73 µM. Besides, the GI50 was 0.963 µM in the assay on M14 melanoma and 0.664 µM with OVCAR-3 ovarian. The TGI in the assay with HL-60(TB) leukemia amounted to 0.565 µM; in the assay with UACC-62 melanoma, 3.97 µM; in the assay with BT-549 breast, 3.71 µM; with NCI/ADR-RES ovarian it was 72.3 µM; in the assay on HCT-116 colon it was 7.11 µM; in the assay with A549 NSCLC, 12.8 µM. Besides, the TGI was determined as 3.4 µM in the assay with M14 melanoma and 6.37 µM in the assay on OVCAR-3 ovarian.

On to `C=C1SC(=Nc2ccccc2Cl)N(C(=O)c2sc3ccccc3c2Cl)C12CCCCC2`, for which the GI50 in the assay with HL-60(TB) leukemia was 6.63 µM; in the assay with UACC-62 melanoma, 22.8 µM; in the assay on BT-549 breast, 70.4 µM; in the assay on NCI/ADR-RES ovarian, 3.51 µM; with HCT-116 colon it was 7.61 µM; with A549 NSCLC, 4.31 µM. The GI50 in the assay on M14 melanoma was 45.1 µM; with OVCAR-3 ovarian, 6.56 µM. The TGI in the assay on HL-60(TB) leukemia is 89.3 µM; with UACC-62 melanoma, over 100 µM; in the assay with BT-549 breast, over 100 µM; with NCI/ADR-RES ovarian it was over 100 µM; in the assay on HCT-116 colon, over 100 µM; with A549 NSCLC, over 100 µM. Further, the TGI was over 100 µM in the assay with M14 melanoma and 93.4 µM in the assay on OVCAR-3 ovarian.

For the molecule `Cc1[nH]c(N)nc(=S)c1CCC(=O)O`, the TGI in the assay with HL-60(TB) leukemia, in the assay on UACC-62 melanoma, in the assay with BT-549 breast, in the assay on NCI/ADR-RES ovarian, with HCT-116 colon and in the assay with A549 NSCLC was over 100 µM throughout. In addition, the TGI in the assay on M14 melanoma and with OVCAR-3 ovarian was over 100 µM in each case.
